Source: publication PMC7046201, “Unexpected differences in the pharmacokinetics of N-acetyl-DL-leucine enantiomers after oral dosing and their clinical relevance” (PLoS ONE, 2020)
“And” between values parts separate entries of the source, which are not always exact repeats. Equal entries are not always repeated.

Columns and labels:
[1] = parameters: method as in Neuzil et al. 2002; details: humans, oral absorption; ref Neuzil et al. 2002; cited from earlier work
[2] = Plasma pharmacokinetics of N-acetyl-leucine enantiomers after oral dosing of mice
Method: The animals were weighed on the day prior to dosing. The compound was administered to male BALB/c mice (n = 3 per time point) p.o. (100 mg/kg; 10 mL/kg) by oral gavage. Blood samples were collected into potassium EDTA tubes by venepuncture from the saphenous vein. Within 30 min following the sampling, blood was centrifuged for plasma separation (room temperature; 10 min; 2700 xg). The plasma samples were transferred into plastic tubes, frozen and stored at –20°C.
The plasma samples were prepared for analysis by mixing 50 μL of plasma with 100 μL of acetonitrile and mixed. In addition to plasma, skeletal muscle and brain tissue was also taken at less frequent time points (0.5, 2, 6, 24 and 48 h) and prepared for analysis by homogenization of 50 mg of tissue with 100 μL of acetonitrile. The samples were transferred to Waters 96-well plate and the sample was evaporated under nitrogen gas flow. The sample was reconstituted into 150 μl of 50% methanol:water and analysed by LC/MS. Standard plasma samples were prepared by spiking the injection solution with concentrations from 1 to 10 000 ng/mL by using one volume of spiking solution and nine volumes of injection solution. These samples were then prepared for analysis in the same way as the samples. […] QC samples from racemic-N-Acetyl-Leucine were prepared into concentrations of 40, 400 and 4000 ng/mL, corresponding to […] concentration of both D- and L-enantiomers, respectively. […] QC samples were then prepared for analysis in the same way as the samples.
Quantification by HPLC was performed using a Supelco Astec CHIROBIOTIC T chiral HPLC column (2.1 x 150 mm, 5 μm particle size) with a Waters Acquity UPLC + Thermo Q-Exactive hybrid Orbitrap MS, using ESI negative polarity, nitrogen auxiliary gas (450°C), capillary voltage was […] and controlled with the software Xcalibur 4.1. Samples were injected as a 4-μL volume and eluted with a gradient of buffer A (20 mM ammonium acetate) and buffer B (methanol) with a flow rate of 0.3 mL/min and column oven temperature of 30°C. The gradient was 80% A at 0 min; 20% A at 3.5 min and 80% A at 4.5 min Parallel Reaction Monitoring (PRM) and Full-MS-dd-MS2 were measured at the same time. […] Ions with aforementioned m/z was then collided and leucine fragment (m/z 130 or 134) was used in quantitation. In full-MS-dd-MS2 mode, every ion with intensity over a certain intensity was collided and fragments analyzed.
Plasma pharmacokinetic parameters of the N-acetyl-leucine enantiomers were calculated using Phoenix 64 (Build 6.4.0.768) WinNonlin (version 6.4) software, using non-compartmental method with sparse sampling. Nominal doses were used for all animals. The terminal phase half-life (T1/2), the time for 50% of the plasma concentration to decrease after some point of elimination, was calculated by least-squares regression analysis of the terminal linear part of the log concentration–time curve using the relationship 0.693/ke. The area under the plasma concentration–time curve (AUC), an estimation of plasma drug exposure over time, was determined with the linear trapezoidal rule for increasing values and log trapezoidal rule for decreasing values up to the last measurable concentration (AUC0-last). The first order elimination rate constant ke was calculated as the slope (minimum 3 points) from the terminal log plasma concentration time curve. The maximum concentration (Cmax) and the time taken to achieve the peak concentration (Tmax) after oral dose were obtained directly from the plasma concentration data without interpolation. The theoretical background and interpretation of the pharmacokinetic data was based on. Where appropriate, data are expressed as the mean ± standard error of the mean. Means were statistically analysed by either pre-planned t tests or a one-sample t test comparing the measured value with the expected value.

[3] = Brain concentration of enantiomers after oral dosing of mice; type: in vivo, male BALB/c mice
Method: (§1) In addition to plasma, skeletal muscle and brain tissue was also taken at less frequent time points (0.5, 2, 6, 24 and 48 h) and prepared for analysis by homogenization of 50 mg of tissue with 100 μL of acetonitrile. The samples were transferred to Waters 96-well plate and the sample was evaporated under nitrogen gas flow. The sample was reconstituted into 150 μl of 50% methanol:water and analysed by LC/MS. […] These samples were then prepared for analysis in the same way as the samples. […] QC samples from racemic-N-Acetyl-Leucine were prepared into concentrations of 40, 400 and 4000 ng/mL, corresponding to 20, 200 and 200 ng/mL concentration of both D- and L-enantiomers, respectively. […] QC samples were then prepared for analysis in the same way as the samples.
(§2) Quantification by HPLC was performed using a Supelco Astec CHIROBIOTIC T chiral HPLC column (2.1 x 150 mm, 5 μm particle size) with a Waters Acquity UPLC + Thermo Q-Exactive hybrid Orbitrap MS, using ESI negative polarity, nitrogen auxiliary gas (450°C), capillary voltage was 2000 and 350°C and controlled with the software Xcalibur 4.1. Samples were injected as a 4-μL volume and eluted with a gradient of buffer A (20 mM ammonium acetate) and buffer B (methanol) with a flow rate of 0.3 mL/min and column oven temperature of 30°C. The gradient was 80% A at 0 min; 20% A at 3.5 min and 80% A at 4.5 min Parallel Reaction Monitoring (PRM) and Full-MS-dd-MS2 were measured at the same time. […] Ions with aforementioned m/z was then collided and leucine fragment (m/z 130 or 134) was used in quantitation. In full-MS-dd-MS2 mode, every ion with intensity over a certain intensity was collided and fragments analyzed.

[4] = Skeletal muscle concentration of enantiomers after oral dosing of mice; type: in vivo, male BALB/c mice; details: individual mice
Method: as §1, §2

[5] = 0.15 h after p.o. N-Acetyl-L-Leucine 100 mg/kg, individual mice
[6] = 0.30 h after p.o. N-Acetyl-L-Leucine 100 mg/kg, individual mice
[7] = 1.00 h after p.o. N-Acetyl-L-Leucine 100 mg/kg, individual mice
[8] = 2.00 h after p.o. N-Acetyl-L-Leucine 100 mg/kg, individual mice
[9] = 4.00 h after p.o. N-Acetyl-L-Leucine 100 mg/kg, individual mice
[10] = 6.00 h after p.o. N-Acetyl-L-Leucine 100 mg/kg, individual mice
[11] = 8.00 h after p.o. N-Acetyl-L-Leucine 100 mg/kg, individual mice
[12] = 24.0 h after p.o. N-Acetyl-L-Leucine 100 mg/kg, individual mice
[13] = 32.0 h after p.o. N-Acetyl-L-Leucine 100 mg/kg, individual mice
[14] = 48.0 h after p.o. N-Acetyl-L-Leucine 100 mg/kg, individual mice
[15] = male, BALB/c, mouse, in vivo, po, 100 mg/kg
[16] = male, BALB/c, mouse, plasma, oral, 100 mg/kg, concentration in plasma, 0.30 h after p.o. N-Acetyl-L-Leucine 100 mg/kg, individual mice
[17] = male, BALB/c, mouse, plasma, oral, 100 mg/kg, concentration in plasma, 6.00 h after p.o. N-Acetyl-L-Leucine 100 mg/kg, individual mice
[18] = male, BALB/c, mouse, plasma, po, 100 mg/kg
[19] = plasma, after oral N-Acetyl-L-Leucine, nominal dose 100 mg/kg
[20] = plasma, after oral N-Acetyl-L-Leucine, nominal dose 100 mg/kg, 100 mg/kg
[21] = plasma, after oral N-Acetyl-L-Leucine, nominal dose 100 mg/kg, listed as D-enantiomer, 100 mg/kg
[22] = 0.30 h after p.o. N-Acetyl-DL-Leucine 100 mg/kg
[23] = 2.00 h after p.o. N-Acetyl-DL-Leucine 100 mg/kg
[24] = male, BALB/c, mouse, skeletal muscle, oral, 100 mg/kg, 0.30 h after p.o. N-Acetyl-DL-Leucine 100 mg/kg
[25] = plasma, after oral N-Acetyl-L-Leucine, nominal dose 100 mg/kg, listed as L-enantiomer, 100 mg/kg

For `CC(=O)NC(CC(C)C)C(=O)O` (racemic) [N-Acetyl-DL-Leucine, N-acetyl-DL-leucine], the elimination half-life [1] is listed as 60 to 108 min.

For `CC(=O)N[C@H](CC(C)C)C(=O)O` [N-Acetyl-D-Leucine, N-acetyl-D-leucine], the concentration in plasma [2, 5] was 391 ng/mL and 336 ng/mL, the concentration in plasma [2, 6] was 463 ng/mL and 388 ng/mL and the concentration in plasma [2, 7] was 116 ng/mL and 144 ng/mL and 248 ng/mL. The concentration in plasma [2, 8] was “<LoQ and 45.6 ng/ml”, the concentration in plasma [2, 9] was “<LoQ” and the concentration in plasma [2, 10] was “<LoQ and 21.4 ng/ml”. For the same compound, the concentration in plasma [2, 11] was 15.0 ng/ml and <LoQ, the concentration in plasma [2, 12] was “<LoQ” and the concentration in plasma [2, 13] was “<LoQ”. For the same compound, the concentration in plasma [2, 14] was “<LoQ”, the “actual dose proportionality for AUC” value ([2]; male, BALB/c, mouse, in vivo) was 101 fold and the “actual dose proportionality for Cmax” value ([2]; male, BALB/c, mouse, in vivo) was 197 fold. The Clast [2, 15] was 247 ng/mL, the Cmax [2, 15] was 86100 ng/mL and the Tmax [2, 15] was less than 15 min. It also gave a half-life [2, 15] of 18.6 min, a k el [2, 15] of 0.000611 s⁻¹ and a ke [2, 15] of 2.2. For the same compound, the concentration at 0.15 h ([2]; male, BALB/c, mouse, plasma, oral, 100 mg/kg, concentration in plasma, 0.15 h after p.o. N-Acetyl-L-Leucine 100 mg/kg, individual mice) was 582 ng/mL, the concentration at 0.3 h [2, 16] was 392 ng/mL and the concentration at 2 h ([2]; male, BALB/c, mouse, plasma, oral, 100 mg/kg, concentration in plasma, 2.00 h after p.o. N-Acetyl-L-Leucine 100 mg/kg, individual mice) was 33.4 ng/mL. It also gave a concentration at 6 h [2, 17] of 23.3 ng/mL, a concentration at 8 h ([2]; male, BALB/c, mouse, plasma, oral, 100 mg/kg, concentration in plasma, 8.00 h after p.o. N-Acetyl-L-Leucine 100 mg/kg, individual mice) of 17.3 ng/mL and a Cmax [2, 18] of 436 ng/mL. The Tmax [2, 18] was less than 15 min, the half-life [2, 18] was 15 min and the k el [2, 18] was 0.000472 s⁻¹. For the same compound, the AUC0-last [2, 19] was 573 h x ng/mL, the ke [2, 19] was 1.7 and the Clast [2, 20] was 16.2 ng/mL. For the same compound, the Tlast [2, 20] was 8.00 h, the Clast [2, 21] was 16 ng/mL and the Tlast [2, 21] was 8 h. For the same compound, the concentration in brain ([3]; 0.30 h after p.o. N-Acetyl-DL-Leucine 100 mg/kg, individual mice) was 357 ng/mL and 491 ng/mL and 888 ng/mL, the concentration in brain ([3]; 2.00 h after p.o. N-Acetyl-DL-Leucine 100 mg/kg, individual mice) was “<LoQ” and the concentration at 2 h ([3]; male, BALB/c, mouse, brain, oral, 100 mg/kg, 2.00 h after p.o. N-Acetyl-DL-Leucine 100 mg/kg, individual mice) was 117 ng/mL. For the same compound, the concentration in muscle [4, 22] was 4370 ng/mL and 3590 ng/mL, the concentration in muscle ([4]; 0.30 h after p.o. N-Acetyl-L-Leucine 100 mg/kg) was 1110 ng/mL and 1520 ng/mL and the concentration in muscle [4, 23] was 335 ng/mL and 396 ng/mL and 829 ng/mL. The concentration in muscle ([4]; 2.00 h after p.o. N-Acetyl-L-Leucine 100 mg/kg) was 119 ng/mL and 109 ng/mL, the concentration at 0.3 h [4, 24] was 2860 ng/mL and the concentration at 0.3 h ([4]; male, BALB/c, mouse, skeletal muscle, oral, 100 mg/kg, 0.30 h after p.o. N-Acetyl-L-Leucine 100 mg/kg) was 1090 ng/mL. For the same compound, the concentration at 2 h ([4]; male, BALB/c, mouse, skeletal muscle, oral, 100 mg/kg, 2.00 h after p.o. N-Acetyl-L-Leucine 100 mg/kg) was 112 ng/mL.

In the case of `CC(=O)N[C@@H](CC(C)C)C(=O)O` [N-Acetyl-L-Leucine, N-acetyl-L-leucine], the concentration in plasma [2, 5] is reported as 9090 ng/mL and 12400 ng/mL and 28900 ng/mL, the concentration in plasma [2, 6] is reported as 7520 ng/mL and 10500 ng/mL and the concentration in plasma [2, 7] is reported as 1590 ng/mL and 4280 ng/mL and 5300 ng/mL. The concentration in plasma [2, 8] was 73 ng/mL and 663 ng/mL and 502 ng/mL, the concentration in plasma [2, 9] was 131 ng/mL and 139 ng/mL and 304 ng/mL and the concentration in plasma [2, 10] was “<LoQ and 114 ng/ml”. For the same compound, the concentration in plasma [2, 11] was “<LoQ”, the concentration in plasma [2, 12] was “<LoQ” and the concentration in plasma [2, 13] was “<LoQ”. For the same compound, the concentration in plasma [2, 14] was “<LoQ”, the “actual dose proportionality for AUC” value ([2]; male, BALB/c, mouse, in vivo) was 4.6 fold and the “actual dose proportionality for Cmax” value ([2]; male, BALB/c, mouse, in vivo) was 4.9 fold. For the same compound, the Clast [2, 15] was 623 ng/mL, the Cmax [2, 15] was 3410 ng/mL and the Tmax [2, 15] was less than 15 min. The half-life [2, 15] was 24 min, the k el [2, 15] was 0.000778 s⁻¹ and the ke [2, 15] was 2.8. It also gave a concentration at 0.3 h [2, 16] of 7510 ng/mL, a concentration at 6 h [2, 17] of 222 ng/mL and a Cmax [2, 18] of 16800 ng/mL. It also gave a Tmax [2, 18] of less than 15 min, a half-life [2, 18] of 17.4 min and a k el [2, 18] of 0.000667 s⁻¹. For the same compound, the Clast [2, 19] was 168 ng/mL, the ke [2, 19] was 2.4 and the AUC0-last [2, 20] was 11 400 h x ng/mL. For the same compound, the Tlast [2, 20] was 6.00 h, the AUC0-last [2, 25] was 11400 h x ng/mL and the Tlast [2, 25] was 6 h. The detection in brain ([3]; following oral dosing with the racemate, Fig 6B) was “not detectable at any time point”, the concentration in muscle [4, 22] was 605 ng/mL and 566 ng/mL and the concentration in muscle [4, 23] was 364 ng/mL and 154 ng/mL and 193 ng/mL. For the same compound, the concentration in muscle ([4]; 6.00 h after p.o. N-Acetyl-DL-Leucine 100 mg/kg) was 159 ng/mL and 189 ng/mL, the concentration in muscle ([4]; 24.0 h after p.o. N-Acetyl-DL-Leucine 100 mg/kg) was 195 ng/mL and 153 ng/mL and the concentration in muscle ([4]; 48.0 h after p.o. N-Acetyl-DL-Leucine 100 mg/kg) was 102 ng/mL. It also gave a concentration at 0.3 h [4, 24] of 469 ng/mL, a concentration at 6 h ([4]; male, BALB/c, mouse, skeletal muscle, oral, 100 mg/kg, 6.00 h after p.o. N-Acetyl-DL-Leucine 100 mg/kg) of 108 ng/mL and a concentration at 24 h ([4]; male, BALB/c, mouse, skeletal muscle, oral, 100 mg/kg, 24.0 h after p.o. N-Acetyl-DL-Leucine 100 mg/kg) of 136 ng/mL. The concentration at 48 h ([4]; male, BALB/c, mouse, skeletal muscle, oral, 100 mg/kg, 48.0 h after p.o. N-Acetyl-DL-Leucine 100 mg/kg) was 124 ng/mL.
